According to the NIST ThermoML archive (doi:10.1016/j.tca.2018.07.016):
“And” between values parts separate entries of the source, which are not always exact repeats. Identical values can stand only once.

Details: Liquid, Transpiration method

C1CCCCNCCC1 [octamethylenimine]
Details | vapor or sublimation pressure [kPa]
274.6 K | 0.01266
278.3 K | 0.01754
283.3 K | 0.02575
288.3 K | 0.03757
293.2 K | 0.05489
298.1 K | 0.07468
304.1 K | 0.1162
309.1 K | 0.1671
313.3 K | 0.2073
318.1 K | 0.2813
323.4 K | 0.3868

C1CCCNCC1 [azacycloheptane]
Details | vapor or sublimation pressure [kPa]
275.3 K | 0.2584
278.3 K | 0.3225
281 K | 0.3957
284.2 K | 0.4858
287.3 K | 0.604
290.2 K | 0.7427
293.2 K | 0.8989
296.2 K | 1.051
302.2 K | 1.525
305.2 K | 1.824
308.1 K | 2.177
311.2 K | 2.409
314.2 K | 3.025
317.2 K | 3.485
321.2 K | 4.037

C1CCCNCCC1 [heptamethyleneimine]
Details | vapor or sublimation pressure
276.1 K | 0.08722 kPa
279.6 K | 0.1144 kPa
281.3 K | 0.1316 kPa
285.2 K | 0.1719 kPa
288.3 K | 0.22 kPa
292.1 K | 0.277 kPa
292.3 K | 0.2658 kPa
295.2 K | 0.3338 kPa
299 K | 0.4239 kPa
299.2 K | 0.4202 kPa
302.1 K | 0.5212 kPa
306.1 K | 0.6926 kPa
309 K | 0.8283 kPa and 0.7923 kPa
313 K | 1.016 kPa
317 K | 1.311 kPa
319.8 K | 1.44 kPa
322 K | 1.585 kPa
324.9 K | 1.97 kPa
